Patent publication US20090264384A1, “INDOLE, BENZIMIDAZOLE, AND BENZOLACTAM BORONIC ACID COMPOUNDS, ANALOGS THEREOF AND METHODS OF USE THEREOF” (Nuada, Inc., priority 2004, published 2009)
pIC50: −log10 of the molar value.

Key:
[1] = target: T1, V1a(h) (Homo sapiens, UniProt P37288); test: V1a(h) binding assay; settings: 1.0E−05 M; read-out: % Inhibition of Control Specific Binding
T1 construct: expressed in transfected cells; host or cells: CHO cells

[2] = test system: M (non-selective); test: M (non-selective) binding assay; parameters: species or system rat; settings: 1.0E−05 M
[3] = target: T2, NK1(h) (Homo sapiens, UniProt P25103); test: NK1(h) binding assay; settings: read-out: % Inhibition of Control Specific Binding
T2 construct: NK1(h); U-373MG cells; [Sar^9,Met(O2)^11]-SP; Heuillet et al. (1993); endogenous in cells; host or cells: U-373MG cells

[4] = test system: 5-HT (non-selective); test: 5-HT (non-selective) binding assay; parameters: species or system rat; settings: 1.0E−05 M
[5] = target: T3, A1(h) (Homo sapiens, UniProt P30542); test: A1(h) binding assay; settings: 1.0E−05 M; read-out: % Inhibition of Control Specific Binding
T3 construct: expressed in transfected cells; host or cells: CHO cells

[6] = target: CYP2D6 (Homo sapiens, UniProt P10635); test: ADME-Tox: In vitro Metabolism (Cytochrome P450, fluorogenic substrates BFC, CEC, MFC); parameters: inhibition: dose or concentration left out as unconfirmed; settings: human
[7] = target: CYP2C9 (Homo sapiens, UniProt P11712); test: as above; parameters: inhibition: dose or concentration left out as unconfirmed; settings: human
[8] = target: CYP1A2 (Homo sapiens, UniProt P05177); test: as above; parameters: inhibition: dose or concentration left out as unconfirmed; settings: human
[9] = target: CYP2C19 (Homo sapiens, UniProt P33261); test: as above; parameters: inhibition: dose or concentration left out as unconfirmed; settings: human
[10] = target: CYP3A4 (Homo sapiens, UniProt P08684); test: as above; parameters: inhibition: dose or concentration left out as unconfirmed; settings: human
[11] = target: T4, ETA(h) (Homo sapiens, UniProt P25101); test: ETA(h) binding assay; settings: 1.0E−05 M; read-out: % Inhibition of Control Specific Binding
T4 construct: expressed in transfected cells; host or cells: CHO cells

[12] = target: T5, Phenylethanolamine-N-methyl transferase (Bos taurus, UniProt P10938); test: Phenylethanolamine-N-methyl transferase enzyme assay; type: biochemical, bovine; settings: 1.0E−05 M
T5 construct: bovine adrenal; from tissue; host or cells: bovine adrenal medulla

[13] = test system: TNF-α production by PMBC; test: Inhibition of TNF-α Production By Peripheral Blood Monocyte Cells (PMBC), LPS stimulated; type: cell-based; settings: 1 ug/mL LPS, 24 hours
Procedure: PMBC in RPMI 1640 Cell Culture Medium (containing 1% Penicillin and 1% Streptomycin) are aliquoted into 96-well plates at 5×10^5 cells/well and pre-incubated with test compounds for 30 minutes at 37° C. After incubation, 1 ug/mL LPS is added to each well to stimulate TNF-α production and the plate is incubated for 24 hours at 37° C. After incubation, the supernatant is removed and the TNF-α secreted is quantified using EIA detection kits commercially available from R&D Systems (USA). The results from this assay are expressed as percent inhibition of control activity, with the control being stimulated wells with no test compound. Dexamethasone is used as a standard reference compound in the assay and is tested with each experiment. All test compounds are diluted from 10 mM stock solutions in 100% DMSO.

T2 sequence (P25103 whole entry): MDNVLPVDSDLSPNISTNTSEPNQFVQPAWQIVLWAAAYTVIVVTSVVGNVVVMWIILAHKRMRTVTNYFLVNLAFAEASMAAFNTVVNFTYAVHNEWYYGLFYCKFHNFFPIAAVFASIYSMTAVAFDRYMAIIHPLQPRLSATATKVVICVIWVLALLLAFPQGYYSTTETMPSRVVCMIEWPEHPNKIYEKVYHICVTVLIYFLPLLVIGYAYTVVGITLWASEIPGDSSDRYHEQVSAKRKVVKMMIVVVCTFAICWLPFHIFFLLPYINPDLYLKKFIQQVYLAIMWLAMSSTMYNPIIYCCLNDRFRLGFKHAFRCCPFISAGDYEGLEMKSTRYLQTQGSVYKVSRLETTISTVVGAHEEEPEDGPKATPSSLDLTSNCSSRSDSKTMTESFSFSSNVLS
T3 sequence (P30542 whole entry): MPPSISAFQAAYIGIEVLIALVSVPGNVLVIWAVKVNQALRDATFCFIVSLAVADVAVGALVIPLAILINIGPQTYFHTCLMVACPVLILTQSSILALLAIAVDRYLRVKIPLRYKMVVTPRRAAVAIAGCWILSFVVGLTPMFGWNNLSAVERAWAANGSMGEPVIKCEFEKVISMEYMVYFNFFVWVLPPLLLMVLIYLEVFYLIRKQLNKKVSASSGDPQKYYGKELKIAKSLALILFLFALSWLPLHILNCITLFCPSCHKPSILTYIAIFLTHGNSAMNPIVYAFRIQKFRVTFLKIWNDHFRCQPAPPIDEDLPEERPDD
Chain of CYP2C19 (P33261 whole entry): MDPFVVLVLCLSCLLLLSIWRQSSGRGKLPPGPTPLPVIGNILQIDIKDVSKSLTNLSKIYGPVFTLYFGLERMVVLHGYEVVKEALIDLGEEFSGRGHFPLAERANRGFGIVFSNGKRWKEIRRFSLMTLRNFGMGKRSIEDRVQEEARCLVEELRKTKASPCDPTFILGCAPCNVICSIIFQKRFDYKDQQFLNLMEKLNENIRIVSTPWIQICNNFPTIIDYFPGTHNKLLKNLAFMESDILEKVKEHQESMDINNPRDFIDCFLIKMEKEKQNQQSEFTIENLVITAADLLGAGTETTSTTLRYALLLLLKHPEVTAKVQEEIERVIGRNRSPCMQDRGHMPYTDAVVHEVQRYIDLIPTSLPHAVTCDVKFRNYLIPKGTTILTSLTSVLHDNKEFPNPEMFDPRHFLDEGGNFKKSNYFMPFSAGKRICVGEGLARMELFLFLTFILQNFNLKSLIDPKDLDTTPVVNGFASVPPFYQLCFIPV
T4 sequence (P25101 21-427): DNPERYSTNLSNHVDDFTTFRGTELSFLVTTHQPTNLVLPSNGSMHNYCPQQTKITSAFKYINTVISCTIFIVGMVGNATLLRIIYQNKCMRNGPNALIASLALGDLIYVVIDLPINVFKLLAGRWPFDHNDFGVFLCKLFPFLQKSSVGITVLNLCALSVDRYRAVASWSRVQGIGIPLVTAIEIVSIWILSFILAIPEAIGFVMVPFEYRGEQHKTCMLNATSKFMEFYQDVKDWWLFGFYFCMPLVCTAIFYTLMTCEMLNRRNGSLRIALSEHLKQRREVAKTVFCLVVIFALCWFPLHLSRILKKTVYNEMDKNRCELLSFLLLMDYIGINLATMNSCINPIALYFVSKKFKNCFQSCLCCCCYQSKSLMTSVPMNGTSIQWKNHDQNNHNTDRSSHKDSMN
Chain of CYP2D6 (P10635 whole entry): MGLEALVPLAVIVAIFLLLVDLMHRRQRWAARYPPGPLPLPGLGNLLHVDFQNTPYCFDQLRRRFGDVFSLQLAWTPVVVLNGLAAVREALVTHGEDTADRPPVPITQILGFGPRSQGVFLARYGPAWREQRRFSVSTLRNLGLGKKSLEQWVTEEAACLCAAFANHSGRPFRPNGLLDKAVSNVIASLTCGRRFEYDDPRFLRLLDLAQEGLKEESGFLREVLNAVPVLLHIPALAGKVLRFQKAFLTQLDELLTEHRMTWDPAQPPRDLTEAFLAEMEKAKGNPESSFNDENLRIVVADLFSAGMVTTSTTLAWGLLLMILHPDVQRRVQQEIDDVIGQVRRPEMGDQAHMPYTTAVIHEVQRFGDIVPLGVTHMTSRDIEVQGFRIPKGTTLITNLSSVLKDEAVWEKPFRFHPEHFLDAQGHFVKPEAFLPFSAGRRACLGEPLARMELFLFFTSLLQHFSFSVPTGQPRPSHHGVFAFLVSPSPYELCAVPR
T5 sequence (P10938 whole entry): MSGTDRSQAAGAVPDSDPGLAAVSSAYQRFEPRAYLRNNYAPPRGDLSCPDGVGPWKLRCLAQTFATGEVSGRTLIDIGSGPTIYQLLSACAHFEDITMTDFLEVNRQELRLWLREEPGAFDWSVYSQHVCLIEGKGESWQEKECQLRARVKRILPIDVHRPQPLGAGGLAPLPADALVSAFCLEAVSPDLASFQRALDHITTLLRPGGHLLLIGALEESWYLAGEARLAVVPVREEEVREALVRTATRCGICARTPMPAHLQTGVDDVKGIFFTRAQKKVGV
Chain of CYP2C9 (P11712 whole entry): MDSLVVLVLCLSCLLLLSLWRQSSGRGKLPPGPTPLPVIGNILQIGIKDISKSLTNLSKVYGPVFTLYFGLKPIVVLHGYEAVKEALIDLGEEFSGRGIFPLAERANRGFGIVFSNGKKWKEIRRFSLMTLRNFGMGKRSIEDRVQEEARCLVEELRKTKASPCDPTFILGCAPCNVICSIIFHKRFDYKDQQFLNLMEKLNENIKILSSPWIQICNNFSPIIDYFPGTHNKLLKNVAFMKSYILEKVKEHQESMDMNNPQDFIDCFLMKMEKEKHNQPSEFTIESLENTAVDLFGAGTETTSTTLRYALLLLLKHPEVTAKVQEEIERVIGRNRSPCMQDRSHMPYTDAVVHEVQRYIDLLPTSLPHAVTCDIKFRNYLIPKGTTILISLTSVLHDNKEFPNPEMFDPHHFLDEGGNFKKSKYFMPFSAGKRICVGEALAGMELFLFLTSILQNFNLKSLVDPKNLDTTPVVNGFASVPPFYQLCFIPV
Chain of CYP3A4 (P08684 whole entry): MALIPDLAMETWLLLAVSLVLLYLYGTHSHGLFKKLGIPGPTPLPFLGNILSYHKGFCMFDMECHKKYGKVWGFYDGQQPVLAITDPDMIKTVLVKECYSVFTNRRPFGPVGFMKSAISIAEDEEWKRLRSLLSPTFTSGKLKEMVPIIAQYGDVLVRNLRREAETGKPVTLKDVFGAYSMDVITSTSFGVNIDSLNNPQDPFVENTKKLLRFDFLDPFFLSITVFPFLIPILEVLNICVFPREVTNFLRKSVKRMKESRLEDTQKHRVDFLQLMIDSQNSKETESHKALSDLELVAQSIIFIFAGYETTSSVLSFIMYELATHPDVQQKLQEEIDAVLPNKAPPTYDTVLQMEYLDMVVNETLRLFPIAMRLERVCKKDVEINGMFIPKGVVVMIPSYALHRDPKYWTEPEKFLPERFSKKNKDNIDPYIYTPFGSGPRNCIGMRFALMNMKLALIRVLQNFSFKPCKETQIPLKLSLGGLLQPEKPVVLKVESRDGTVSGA
Chain of CYP1A2 (P05177 whole entry): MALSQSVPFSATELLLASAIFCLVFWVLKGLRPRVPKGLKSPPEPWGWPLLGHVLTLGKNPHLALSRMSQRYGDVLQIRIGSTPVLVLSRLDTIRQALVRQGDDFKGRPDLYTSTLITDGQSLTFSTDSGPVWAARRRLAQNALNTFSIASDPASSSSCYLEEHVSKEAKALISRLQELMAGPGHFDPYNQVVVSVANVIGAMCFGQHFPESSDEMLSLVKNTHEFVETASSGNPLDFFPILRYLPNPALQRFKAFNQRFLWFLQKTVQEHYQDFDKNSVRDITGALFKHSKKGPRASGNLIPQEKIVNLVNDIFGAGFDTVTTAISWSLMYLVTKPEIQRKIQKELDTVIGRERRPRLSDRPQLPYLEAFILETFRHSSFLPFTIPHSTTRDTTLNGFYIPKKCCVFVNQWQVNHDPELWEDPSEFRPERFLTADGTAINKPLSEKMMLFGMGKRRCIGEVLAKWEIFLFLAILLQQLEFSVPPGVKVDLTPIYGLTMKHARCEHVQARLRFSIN
T1 sequence (P37288 whole entry): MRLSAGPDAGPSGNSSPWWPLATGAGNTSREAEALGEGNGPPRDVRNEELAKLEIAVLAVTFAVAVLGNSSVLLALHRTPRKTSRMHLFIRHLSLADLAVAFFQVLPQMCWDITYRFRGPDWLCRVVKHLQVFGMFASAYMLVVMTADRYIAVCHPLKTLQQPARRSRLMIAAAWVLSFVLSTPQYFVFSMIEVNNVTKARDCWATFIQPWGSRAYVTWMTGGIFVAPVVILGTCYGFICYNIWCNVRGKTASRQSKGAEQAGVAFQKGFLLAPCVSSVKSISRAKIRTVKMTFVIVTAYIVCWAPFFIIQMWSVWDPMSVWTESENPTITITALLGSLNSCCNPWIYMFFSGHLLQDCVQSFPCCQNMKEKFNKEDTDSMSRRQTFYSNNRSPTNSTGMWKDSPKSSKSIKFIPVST

N#Cc1ccc2c(ccn2CCCCCB(O)O)c1 [Example 20, 5-(5-cyano-1H-indol-1-yl)pentylboronic acid]
inhibition at 10 µM [1]: 24%
% Inhibition of Control Specific Binding [2]: −4%
inhibition at 10 µM [3]: 12%
% Inhibition of Control Specific Binding [4]: −1%
inhibition at 10 µM [5]: 7%
inhibition [6]: 42%
inhibition [7]: 73%
inhibition [8]: 40%
inhibition [9]: 52%
inhibition [10]: 97%
inhibition at 10 µM [11]: -25%
% Inhibition of Control Values [12]: 1%
pIC50 [13]: 6.12
